Data published in ChEMBL document CHEMBL1137670, “First occurrence of an IMP metallo-beta-lactamase in Aeromonas caviae: IMP-19 in an isolate from France” (2007).

What was measured:
Acinetobacter baumannii [1] = experiment: Activity of Acinetobacter baumannii AC-54/97 metallo-beta-lactamase IMP-2 expressed in Escherichia coli DH5alpha
Acinetobacter baumannii [2] = experiment: Ratio of Kcat to Km of Acinetobacter baumannii AC-54/97 metallo-beta-lactamase IMP-2 expressed in Escherichia coli DH5alpha

With `CO[C@@]1(NC(=O)Cc2cccs2)C(=O)N2C(C(=O)O)=C(COC(N)=O)CS[C@@H]21` the Km (Acinetobacter baumannii [1]) was 7 µM, the kcat (Acinetobacter baumannii [1]) was 7 s⁻¹ and the kcat/Km (Acinetobacter baumannii [2]) was 1.

With `CC(C)(O/N=C(\C(=O)N[C@@H]1C(=O)N2C(C(=O)[O-])=C(C[n+]3ccccc3)CS[C@H]12)c1csc(N)n1)C(=O)O` the Km (Acinetobacter baumannii [1]) was 111 µM, the kcat (Acinetobacter baumannii [1]) was 21 s⁻¹ and the kcat/Km (Acinetobacter baumannii [2]) was 0.19.

`C[C@@H](O)[C@H]1C(=O)N2C(C(=O)O)=C(SCCNC=N)C[C@H]12` showed a Km (Acinetobacter baumannii [1]) of 24 µM, a kcat (Acinetobacter baumannii [1]) of 22 s⁻¹ and a kcat/Km (Acinetobacter baumannii [2]) of 0.92.

`C[C@@H](O)[C@H]1C(=O)N2C(C(=O)O)=C(S[C@@H]3CN[C@H](C(=O)N(C)C)C3)[C@H](C)[C@H]12` showed a Km (Acinetobacter baumannii [1]) of 0.3 µM, a kcat (Acinetobacter baumannii [1]) of 1 s⁻¹ and a kcat/Km (Acinetobacter baumannii [2]) of 3.3.

`CC1(C)S[C@@H]2[C@H](NC(=O)[C@H](C(=O)O)c3ccsc3)C(=O)N2[C@H]1C(=O)O` gave a Km (Acinetobacter baumannii [1]) of 700 µM, a kcat (Acinetobacter baumannii [1]) of 252 s⁻¹ and a kcat/Km (Acinetobacter baumannii [2]) of 0.36.

`CC1(C)S[C@@H]2[C@H](NC(=O)[C@H](N)c3ccc(O)cc3)C(=O)N2[C@H]1C(=O)O` was tested, and the Km (Acinetobacter baumannii [1]) was 110 µM, the kcat (Acinetobacter baumannii [1]) was 23 s⁻¹ and the kcat/Km (Acinetobacter baumannii [2]) was 0.21.
